Assays:
PIK3CA(Q546K) = target: T1, PIK3CA(Q546K) (Homo sapiens, UniProt P42336, Q546K); experiment: kinome scan; assay type: binding; settings: 10 µM
T1 construct: purchased DiscoverX (KINOMEscan)

OSR1 = target: T2, OSR1 (Homo sapiens, UniProt O95747); experiment: kinome scan; assay type: binding; settings: 10 µM
T2 construct: purchased DiscoverX (KINOMEscan)

NDR2 = target: T3, NDR2 (Homo sapiens, UniProt Q9Y2H1); experiment: kinome scan; assay type: binding; settings: 10 µM
T3 construct: purchased DiscoverX (KINOMEscan)

PRKD1 = target: T4, PRKD1 (Homo sapiens, UniProt Q15139); experiment: kinome scan; assay type: binding; settings: 10 µM
T4 construct: purchased DiscoverX (KINOMEscan)

[1] = tested on: CGR8EF1αS,RLuc-Tα1,FLuc cells; experiment: neural differentiation, Dual Luciferase Reporter Assay (FLuc/RLuc); assay type: cell-based, mouse; settings: 72 h, normalized to DMSO
Protocol: The CGR8 mouse PSC were cultured as described ([Suter et al., 2009]). For neural induction, CGR8 cells were plated in 96-well plates at a density of 10,000 cells/cm^2 on gelatine-coated cell culture plates, in differentiation medium [BHK-21 medium supplemented with 20% foetal calf serum (Thermofisher), L-glutamine 2 mM (Thermofisher), non-essential amino acids (1X, Thermofisher), sodium pyruvate 1 mM (Thermofisher), penicillin/streptomycin 50 U/ml (Thermofisher)]. CGR8EF1αS,RLuc-Tα1,FLuc cells were described in ([Suter et al., 2009]) and were cultured as described above. Luminescence assays were directly performed in 96-well plates with the Dual Luciferase Reporter Assay System (Promega) according to the manufacturer’s instructions. Luminescence was measured with the SpectraMax L Microplate luminometer (Molecular Devices). Cell viability in the wells was measured by the addition of propidium iodide 1 µg/ml in 100 µL of PBS and fluorescence was assessed in each well using a FluoStar Optima reader (Pharmaceutical Technology Group at the University of Geneva).
The CGR8 PSC line was stably transduced with a dual promoter/reporter gene construct containing a ubiquitous promoter (EF1αS) controlling the expression of Renilla Luciferase (RLuc) and also an early neural-specific promoter (Tα1), controlling the expression of Firefly Luciferase (FLuc). […]

MRCKA = target: T5, MRCKA (Homo sapiens, UniProt Q5VT25); experiment: kinome scan; assay type: binding; settings: 10 µM
T5 construct: purchased DiscoverX (KINOMEscan)

[2] = target: T6, RPS6KA5(Kin.Dom.1-N-terminal) (Homo sapiens, UniProt O75582); experiment: kinome scan; assay type: binding; settings: 10 µM
T6 construct: RPS6KA5(Kin.Dom.1-N-terminal); purchased DiscoverX (KINOMEscan)

DRAK2 = target: T7, DRAK2 (Homo sapiens, UniProt O94768); experiment: kinome scan; assay type: binding; settings: 10 µM
T7 construct: purchased DiscoverX (KINOMEscan)

EPHA7 = target: T8, EPHA7 (Homo sapiens, UniProt Q15375); experiment: kinome scan; assay type: binding; settings: 10 µM
T8 construct: purchased DiscoverX (KINOMEscan)

CSF1R = target: T9, CSF1R (Homo sapiens, UniProt P07333); experiment: kinome scan; assay type: binding; settings: 10 µM
T9 construct: purchased DiscoverX (KINOMEscan)

[3] = target: T10, JAK2(JH1domain-catalytic) (Homo sapiens, UniProt O60674); experiment: kinome scan; assay type: binding; settings: 10 µM
T10 construct: JAK2(JH1domain-catalytic); purchased DiscoverX (KINOMEscan)

[4] = tested on: Rat pregnane X receptor (rPXR) signaling pathway; design: method as in CHEMBL2114797; settings: reported activity, data mining; ref CHEMBL2114797; cited from earlier work
PKAC-beta = target: T11, PKAC-beta (Homo sapiens, UniProt P22694); experiment: kinome scan; assay type: binding; settings: 10 µM
T11 construct: purchased DiscoverX (KINOMEscan)

PAK1 = target: T12, PAK1 (Homo sapiens, UniProt Q13153); experiment: kinome scan; assay type: binding; settings: 10 µM
T12 construct: purchased DiscoverX (KINOMEscan)

ANKK1 = target: T13, ANKK1 (Homo sapiens, UniProt Q8NFD2); experiment: kinome scan; assay type: binding
T13 construct: purchased DiscoverX (KINOMEscan)
T13 sequence (Q8NFD2 1-765): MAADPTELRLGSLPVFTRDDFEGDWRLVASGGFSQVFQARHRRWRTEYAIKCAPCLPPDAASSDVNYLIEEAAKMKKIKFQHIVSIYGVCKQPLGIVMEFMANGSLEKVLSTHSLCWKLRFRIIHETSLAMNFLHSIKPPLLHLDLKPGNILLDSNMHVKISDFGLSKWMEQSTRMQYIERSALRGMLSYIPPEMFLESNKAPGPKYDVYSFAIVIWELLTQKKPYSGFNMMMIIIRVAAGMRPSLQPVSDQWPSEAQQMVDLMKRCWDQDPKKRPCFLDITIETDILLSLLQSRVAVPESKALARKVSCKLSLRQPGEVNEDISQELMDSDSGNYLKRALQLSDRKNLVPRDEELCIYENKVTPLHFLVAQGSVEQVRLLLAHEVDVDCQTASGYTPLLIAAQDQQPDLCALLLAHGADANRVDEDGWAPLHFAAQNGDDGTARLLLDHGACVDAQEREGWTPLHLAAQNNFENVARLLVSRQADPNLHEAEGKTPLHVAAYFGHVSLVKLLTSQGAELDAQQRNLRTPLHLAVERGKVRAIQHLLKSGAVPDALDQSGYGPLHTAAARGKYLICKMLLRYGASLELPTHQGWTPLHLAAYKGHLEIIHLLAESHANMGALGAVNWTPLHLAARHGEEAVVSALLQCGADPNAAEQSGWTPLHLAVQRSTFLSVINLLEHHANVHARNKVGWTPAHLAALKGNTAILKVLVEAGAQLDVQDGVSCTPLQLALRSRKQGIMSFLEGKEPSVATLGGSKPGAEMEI

Abelson (Abl) = Abelson (Abl) (Homo sapiens, UniProt P00519); experiment: kinome scan; assay type: binding; design: T7 phage fusion (kinase-tagged phage); purchased DiscoverX (Ambit Biosciences); host or cells: BL21-derived E. coli (T7 phage); settings: read-out: Kinome scan (% of control at 10 µM)
Protocol: The kinome scan analysis was performed using the DiscoverX platform (www.discoverx.com). Briefly, T7 kinase-tagged phage strains are grown in parallel in 24-well or 96-well blocks in a BL21-derived E. coli host for 90 min until lysis. Lysates are centrifuged at 6,000 x g and filtered with a 0.2 µm filter to remove cell debris. Streptavidin-coated magnetic beads are treated with biotinylated kinase ligands for 30 min at room temperature to generate the affinity resin. Bound beads are blocked with excess biotin and washed with blocking buffer (SeaBlock (Pierce), 1% BSA, 0.05% Tween 20, and 1 mM DTT) to remove unbound ligand and reduce nonspecific phage binding. […] The final concentration of test compound is 10 µM. Assay plates are incubated at room temperature with shaking for 1 h. Affinity beads are treated four times with washing buffer (1X PBS, 0.05% Tween 20, and 1 mM DTT) to remove unbound phage. […] Q RT PCR is used to measure the amount of phage in each eluate (which is proportional to the amount of kinase bound). […]
Hits are identified by an ultra-sensitive quantitative PCR detecting the specific DNA tag linked to each kinase (Supplementary Figure S2). The drug is used at a concentration of 10 µM and results are expressed as the percentage of signal (kinase PCR detection) with respect to DMSO control conditions. […]

T6 sequence (O75582 49-387 limits assumed): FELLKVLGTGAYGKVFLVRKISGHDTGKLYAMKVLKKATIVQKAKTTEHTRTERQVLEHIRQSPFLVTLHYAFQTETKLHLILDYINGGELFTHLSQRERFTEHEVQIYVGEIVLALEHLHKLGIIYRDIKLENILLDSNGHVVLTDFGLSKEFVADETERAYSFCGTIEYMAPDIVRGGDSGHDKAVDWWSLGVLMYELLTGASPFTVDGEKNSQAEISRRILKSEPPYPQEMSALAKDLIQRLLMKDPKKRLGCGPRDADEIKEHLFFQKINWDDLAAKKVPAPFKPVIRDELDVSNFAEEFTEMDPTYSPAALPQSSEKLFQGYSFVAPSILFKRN
Chain of Abelson (Abl) (P00519 whole entry, the tested form may be a part): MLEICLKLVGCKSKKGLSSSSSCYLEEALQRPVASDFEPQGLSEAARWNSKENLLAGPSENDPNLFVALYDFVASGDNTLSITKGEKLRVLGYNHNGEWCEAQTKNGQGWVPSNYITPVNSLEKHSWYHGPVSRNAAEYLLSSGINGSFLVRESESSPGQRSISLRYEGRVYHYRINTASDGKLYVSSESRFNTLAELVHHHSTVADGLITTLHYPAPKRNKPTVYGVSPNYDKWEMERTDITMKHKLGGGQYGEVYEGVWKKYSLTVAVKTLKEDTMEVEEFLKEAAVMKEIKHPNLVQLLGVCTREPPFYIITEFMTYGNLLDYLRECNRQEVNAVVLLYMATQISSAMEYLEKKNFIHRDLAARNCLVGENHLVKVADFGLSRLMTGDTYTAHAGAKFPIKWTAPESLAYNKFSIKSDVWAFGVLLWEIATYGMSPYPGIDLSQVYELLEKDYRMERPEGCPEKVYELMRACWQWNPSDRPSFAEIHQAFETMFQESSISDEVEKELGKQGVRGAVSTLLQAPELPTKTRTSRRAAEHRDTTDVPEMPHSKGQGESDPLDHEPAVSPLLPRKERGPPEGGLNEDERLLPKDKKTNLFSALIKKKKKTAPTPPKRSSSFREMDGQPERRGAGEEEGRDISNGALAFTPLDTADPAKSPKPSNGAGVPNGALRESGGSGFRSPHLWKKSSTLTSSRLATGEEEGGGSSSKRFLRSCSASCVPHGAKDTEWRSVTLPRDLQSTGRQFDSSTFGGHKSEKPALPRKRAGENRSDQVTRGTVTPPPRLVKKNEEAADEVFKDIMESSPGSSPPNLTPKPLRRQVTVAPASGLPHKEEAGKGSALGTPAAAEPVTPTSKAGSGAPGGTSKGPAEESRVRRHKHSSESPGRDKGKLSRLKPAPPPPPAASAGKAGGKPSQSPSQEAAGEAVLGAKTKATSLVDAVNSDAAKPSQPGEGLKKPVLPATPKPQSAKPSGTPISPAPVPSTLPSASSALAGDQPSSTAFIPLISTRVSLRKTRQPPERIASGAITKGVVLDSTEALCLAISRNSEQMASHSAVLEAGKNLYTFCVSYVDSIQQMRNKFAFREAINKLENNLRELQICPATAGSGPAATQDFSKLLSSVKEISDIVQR
T10 sequence (O60674 840-1132 limits assumed): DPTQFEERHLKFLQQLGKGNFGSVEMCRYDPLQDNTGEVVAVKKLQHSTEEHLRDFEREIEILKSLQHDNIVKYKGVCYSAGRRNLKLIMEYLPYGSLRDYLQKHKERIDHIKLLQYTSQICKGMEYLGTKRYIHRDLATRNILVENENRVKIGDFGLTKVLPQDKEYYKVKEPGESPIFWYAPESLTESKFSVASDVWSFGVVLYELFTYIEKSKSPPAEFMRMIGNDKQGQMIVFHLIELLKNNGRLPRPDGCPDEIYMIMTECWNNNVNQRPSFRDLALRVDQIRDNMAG
T1 sequence (P42336 whole entry Q546K): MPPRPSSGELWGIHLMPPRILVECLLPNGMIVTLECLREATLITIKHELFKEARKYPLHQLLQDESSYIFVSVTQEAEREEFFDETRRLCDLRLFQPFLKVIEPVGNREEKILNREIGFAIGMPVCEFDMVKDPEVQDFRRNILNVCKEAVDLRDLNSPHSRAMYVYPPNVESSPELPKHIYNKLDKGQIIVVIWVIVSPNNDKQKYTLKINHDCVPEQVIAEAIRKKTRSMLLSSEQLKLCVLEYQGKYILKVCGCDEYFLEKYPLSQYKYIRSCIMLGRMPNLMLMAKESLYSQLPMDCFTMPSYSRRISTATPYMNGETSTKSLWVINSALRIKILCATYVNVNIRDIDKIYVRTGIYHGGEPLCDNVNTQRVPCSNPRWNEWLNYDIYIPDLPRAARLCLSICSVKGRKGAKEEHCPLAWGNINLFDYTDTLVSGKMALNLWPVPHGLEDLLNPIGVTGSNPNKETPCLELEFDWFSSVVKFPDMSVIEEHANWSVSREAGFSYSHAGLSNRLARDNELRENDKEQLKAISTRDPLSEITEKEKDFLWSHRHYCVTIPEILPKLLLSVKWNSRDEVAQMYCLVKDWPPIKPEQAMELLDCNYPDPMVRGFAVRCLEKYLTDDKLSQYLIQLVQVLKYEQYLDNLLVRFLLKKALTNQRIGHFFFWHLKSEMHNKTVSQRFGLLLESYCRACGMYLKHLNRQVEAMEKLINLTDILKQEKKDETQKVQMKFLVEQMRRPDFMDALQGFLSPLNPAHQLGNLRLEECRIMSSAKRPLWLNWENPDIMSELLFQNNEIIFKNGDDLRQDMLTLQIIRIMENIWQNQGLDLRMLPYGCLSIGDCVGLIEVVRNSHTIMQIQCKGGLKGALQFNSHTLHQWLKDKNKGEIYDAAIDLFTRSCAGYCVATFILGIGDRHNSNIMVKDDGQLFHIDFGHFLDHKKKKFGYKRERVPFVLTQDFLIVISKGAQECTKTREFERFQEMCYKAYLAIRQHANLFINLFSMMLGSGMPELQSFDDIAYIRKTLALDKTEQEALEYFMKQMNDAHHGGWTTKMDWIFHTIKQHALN
T12 sequence (Q13153 whole entry): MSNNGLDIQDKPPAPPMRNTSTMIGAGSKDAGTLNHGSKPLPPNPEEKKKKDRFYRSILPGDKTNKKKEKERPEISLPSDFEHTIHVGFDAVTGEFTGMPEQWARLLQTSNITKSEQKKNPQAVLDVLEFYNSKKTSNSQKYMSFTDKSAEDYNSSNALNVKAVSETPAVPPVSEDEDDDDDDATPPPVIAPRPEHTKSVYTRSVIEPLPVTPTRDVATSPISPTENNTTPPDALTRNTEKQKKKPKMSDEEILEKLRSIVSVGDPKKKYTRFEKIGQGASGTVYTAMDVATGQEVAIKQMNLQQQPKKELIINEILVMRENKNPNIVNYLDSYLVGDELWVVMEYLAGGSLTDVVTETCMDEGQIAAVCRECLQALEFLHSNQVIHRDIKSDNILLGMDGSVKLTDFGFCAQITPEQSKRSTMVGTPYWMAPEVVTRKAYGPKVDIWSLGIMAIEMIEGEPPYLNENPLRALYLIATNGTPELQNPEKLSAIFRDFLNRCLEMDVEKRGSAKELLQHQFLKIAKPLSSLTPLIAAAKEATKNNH
T7 sequence (O94768 whole entry): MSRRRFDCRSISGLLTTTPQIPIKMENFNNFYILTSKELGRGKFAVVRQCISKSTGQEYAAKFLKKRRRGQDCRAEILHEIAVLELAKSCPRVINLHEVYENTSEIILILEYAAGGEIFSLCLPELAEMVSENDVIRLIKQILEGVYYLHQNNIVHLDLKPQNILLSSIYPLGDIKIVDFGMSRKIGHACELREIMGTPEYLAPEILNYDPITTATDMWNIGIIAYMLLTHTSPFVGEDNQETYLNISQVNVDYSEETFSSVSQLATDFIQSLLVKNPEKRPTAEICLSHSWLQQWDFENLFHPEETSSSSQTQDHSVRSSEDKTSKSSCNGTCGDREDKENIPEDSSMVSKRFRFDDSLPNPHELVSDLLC
T3 sequence (Q9Y2H1 whole entry): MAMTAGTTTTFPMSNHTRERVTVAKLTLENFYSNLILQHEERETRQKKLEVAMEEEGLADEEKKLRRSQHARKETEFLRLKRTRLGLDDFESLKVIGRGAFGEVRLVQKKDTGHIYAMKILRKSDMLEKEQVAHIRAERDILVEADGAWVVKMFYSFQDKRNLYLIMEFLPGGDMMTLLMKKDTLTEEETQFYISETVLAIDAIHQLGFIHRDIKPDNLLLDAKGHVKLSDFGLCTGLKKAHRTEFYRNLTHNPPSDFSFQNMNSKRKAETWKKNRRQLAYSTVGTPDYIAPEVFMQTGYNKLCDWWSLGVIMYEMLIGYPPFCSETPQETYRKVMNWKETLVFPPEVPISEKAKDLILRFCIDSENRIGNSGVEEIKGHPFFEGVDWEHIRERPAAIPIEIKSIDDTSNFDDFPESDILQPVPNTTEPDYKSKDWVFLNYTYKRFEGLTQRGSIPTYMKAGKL
T2 sequence (O95747 whole entry): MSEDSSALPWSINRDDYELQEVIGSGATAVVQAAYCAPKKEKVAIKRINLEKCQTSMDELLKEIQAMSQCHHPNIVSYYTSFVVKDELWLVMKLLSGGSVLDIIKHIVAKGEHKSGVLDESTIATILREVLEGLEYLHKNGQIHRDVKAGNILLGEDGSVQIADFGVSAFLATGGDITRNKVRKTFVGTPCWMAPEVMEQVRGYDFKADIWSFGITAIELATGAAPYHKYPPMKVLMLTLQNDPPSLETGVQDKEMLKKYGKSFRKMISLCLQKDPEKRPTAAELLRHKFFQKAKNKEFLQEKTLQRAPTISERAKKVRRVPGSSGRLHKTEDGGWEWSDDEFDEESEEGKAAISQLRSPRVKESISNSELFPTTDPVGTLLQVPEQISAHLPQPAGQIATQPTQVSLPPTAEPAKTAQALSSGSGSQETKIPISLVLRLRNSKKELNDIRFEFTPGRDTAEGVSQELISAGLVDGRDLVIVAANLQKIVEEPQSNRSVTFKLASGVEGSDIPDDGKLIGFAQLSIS

Nc1ccc(N=Nc2ccccc2)c(N)n1 [phenazopyridine, 2,6-diamino-3-(phenylazo)pyridine]
kinase inhibition (PIK3CA(Q546K)): 100
kinase inhibition (OSR1): 100
kinase inhibition (NDR2): 100
kinase inhibition (PRKD1): 100
concentration at which an increase of the FLuc signal was observed [1]: 1 µM
concentration of maximal FLuc signal [1]: 10 µM
kinase inhibition (MRCKA): 99
kinase inhibition [2]: 100
kinase inhibition (DRAK2): 100
kinase inhibition (EPHA7): 91
kinase inhibition (CSF1R): 81
kinase inhibition [3]: 82
Concentration [4]: 7 µM
kinase inhibition (PKAC-beta): 95
kinase inhibition (PAK1): 100
remaining binding (% of control) (ANKK1; 10 µM): 18
remaining binding at 10 µM (ANKK1; read-out: % Of control): 18%
remaining binding at 10 µM (Abelson (Abl)): 48%
